{"source": "patent US11839630B2", "about": "“CAR-T cells targeting IL-1RAP and their use” (ETABLISSEMENT FRANCAIS DU SANG, priority 2017, dated 2023)", "origin": "cited, not measured here", "key": {"CML [1]": {"test_system": "CML", "conditions": "cited from earlier work"}, "CML [2]": {"test_system": "CML", "conditions": "cited from earlier work", "remark": "listed apart in the source"}}}
{"molecule": "Cc1ccc(NC(=O)c2ccc(CN3CCN(C)CC3)cc2)cc1Nc1nccc(-c2cccnc2)n1", "note": "[Imatinib]", "values": [{"measurement": "rate of molecular relapse after stopping TKI", "setting": "CML [1]; n=100 patients with complete molecular response", "value": 61, "unit": "%"}, {"measurement": "median time of molecular relapse", "setting": "CML [1]; n=100 patients", "value": 2.5, "unit": "months"}, {"measurement": "patients relapsed after discontinuation", "setting": "CML [2]; 42 of 69 patients, treatment of more than 2 years discontinued", "value": 61, "unit": "%"}, {"measurement": "probability of persistent molecularly undetectable leukemia", "setting": "CML [2]; at 12 months, 69 patients", "value": 41, "unit": "%"}]}
